The record followed here is PubChem BioAssay AID1259407 (Chemical Carcinogenesis Research Information System (CCRIS), 2018).

Molecules are shown by their SMILES. Activity calls are given as the source filed them. No rule for the calls is given here.

For the series, the system named is CCRIS mutagenicity, Ames/micronucleus/aberration tests. Briefly: CCRIS mutagenicity studies.
Setting [1] is: Test System: AMES SALMONELLA TYPHIMURIUM, Strain/Indicator: TA98, Metabolic Activation: NONE, Method: STANDARD PLATE.
[2] abbreviates: Test System: AMES SALMONELLA TYPHIMURIUM, Strain/Indicator: TA100, Metabolic Activation: NONE, Method: STANDARD PLATE.
[3] abbreviates: Test System: AMES SALMONELLA TYPHIMURIUM, Strain/Indicator: TA100, Metabolic Activation: RAT, LIVER, S-9, AROCLOR 1254, Method: STANDARD PLATE.

For the compound `CCN(CC)CC#CC(C)(C)OC(=O)C(O)(c1ccccc1)C1CCCCC1` (centres undefined), the mutagenic call under setting [1] is “inactive; negative”; the mutagenic call (Test System: AMES SALMONELLA TYPHIMURIUM, Strain/Indicator: TA98, Metabolic Activation: RAT, LIVER, S-9, PHENOBARBITAL AND 5,6-BENZOFLAVONE, Method: STANDARD PLATE) was “inactive; negative”; the mutagenic call under setting [2] is “inactive; negative”; the mutagenic call (Test System: AMES SALMONELLA TYPHIMURIUM, Strain/Indicator: TA100, Metabolic Activation: RAT, LIVER, S-9, PHENOBARBITAL AND 5,6-BENZOFLAVONE, Method: STANDARD PLATE) was “inactive; negative”; the mutagenic call (Test System: AMES SALMONELLA TYPHIMURIUM, Strain/Indicator: TA1535, Metabolic Activation: NONE, Method: STANDARD PLATE) was “inactive; negative”; the mutagenic call (Test System: AMES SALMONELLA TYPHIMURIUM, Strain/Indicator: TA1535, Metabolic Activation: RAT, LIVER, S-9, PHENOBARBITAL AND 5,6-BENZOFLAVONE, Method: STANDARD PLATE) is “inactive; negative”. Also, the mutagenic call is, setting by setting: (Test System: AMES SALMONELLA TYPHIMURIUM, Strain/Indicator: TA1537, Metabolic Activation: NONE, Method: STANDARD PLATE) “inactive; negative”; (Test System: AMES SALMONELLA TYPHIMURIUM, Strain/Indicator: TA1537, Metabolic Activation: RAT, LIVER, S-9, PHENOBARBITAL AND 5,6-BENZOFLAVONE, Method: STANDARD PLATE) “inactive; negative”; (Test System: E. COLI, Strain/Indicator: WP2 UVRA, Metabolic Activation: NONE, Method: STANDARD PLATE) “inactive; negative”; (Test System: E. COLI, Strain/Indicator: WP2 UVRA, Metabolic Activation: RAT, LIVER, S-9, PHENOBARBITAL AND 5,6-BENZOFLAVONE, Method: STANDARD PLATE) “inactive; negative”.
`O=[N+]([O-])c1cc([N+](=O)[O-])c2ccc3cccc4ccc1c2c43`: the mutagenic call is “active; positive” (End Point: IN VITRO CHROMOSOMAL ABERRATIONS, Test System: CHINESE HAMSTER LUNG (CHL) CELLS, Metabolic Activation: NONE); “active; positive” (End Point: IN VITRO CHROMOSOMAL ABERRATIONS, Test System: CHINESE HAMSTER LUNG (CHL) CELLS, Metabolic Activation: RAT, LIVER, S-9, KC-400); “active; positive” (Test System: AMES SALMONELLA TYPHIMURIUM, Strain/Indicator: TA98 (1,8-DNP6), Metabolic Activation: NONE, Method: STANDARD PLATE); “active; positive” (Test System: AMES SALMONELLA TYPHIMURIUM, Strain/Indicator: TA98 (NR), Metabolic Activation: NONE, Method: STANDARD PLATE); “active; positive” (Test System: AMES SALMONELLA TYPHIMURIUM, Strain/Indicator: TA98, Metabolic Activation: NONE, Method: PREINCUBATION); “active; positive” under setting [1]. Further, the mutagenic call (Test System: AMES SALMONELLA TYPHIMURIUM, Strain/Indicator: TA98, Metabolic Activation: RAT, LIVER, S-9, PCB (10%), Method: PREINCUBATION) was “inactive; negative”; the mutagenic call under setting [2] is “active; positive”; the mutagenic call (Test System: AMES SALMONELLA TYPHIMURIUM, Strain/Indicator: TA100, Metabolic Activation: RAT, LIVER, CYTOSOL, AROCLOR 1254, Method: STANDARD PLATE) was “active; positive”; the mutagenic call (Test System: AMES SALMONELLA TYPHIMURIUM, Strain/Indicator: TA100, Metabolic Activation: RAT, LIVER, CYTOSOL, Method: STANDARD PLATE) is “active; positive”; the mutagenic call (Test System: AMES SALMONELLA TYPHIMURIUM, Strain/Indicator: TA100, Metabolic Activation: RAT, LIVER, MICROSOMES, AROCLOR 1254, Method: STANDARD PLATE) was “active; positive”; the mutagenic call (Test System: AMES SALMONELLA TYPHIMURIUM, Strain/Indicator: TA100, Metabolic Activation: RAT, LIVER, MICROSOMES, Method: STANDARD PLATE) was “active; positive”. Besides, the mutagenic call reads like this: under setting [3], “inactive; negative”; (Test System: AMES SALMONELLA TYPHIMURIUM, Strain/Indicator: TA100, Metabolic Activation: RAT, LIVER, S-9, Method: STANDARD PLATE) “active; positive”; (Test System: AMES SALMONELLA TYPHIMURIUM, Strain/Indicator: TA7001, Metabolic Activation: NONE, Method: PREINCUBATION) “active; positive”; (Test System: AMES SALMONELLA TYPHIMURIUM, Strain/Indicator: TA7002, Metabolic Activation: NONE, Method: PREINCUBATION) “active; positive”; (Test System: AMES SALMONELLA TYPHIMURIUM, Strain/Indicator: TA7003, Metabolic Activation: NONE, Method: PREINCUBATION) “active; positive”; (Test System: AMES SALMONELLA TYPHIMURIUM, Strain/Indicator: TA7004, Metabolic Activation: NONE, Method: PREINCUBATION) “active; positive”. The mutagenic call is, setting by setting: (Test System: AMES SALMONELLA TYPHIMURIUM, Strain/Indicator: TA7005, Metabolic Activation: NONE, Method: PREINCUBATION) “active; positive”; (Test System: AMES SALMONELLA TYPHIMURIUM, Strain/Indicator: TA7006, Metabolic Activation: NONE, Method: PREINCUBATION) “active; positive”; (Test System: UDS HUMAN HEPATOMA CELLS, Strain/Indicator: HEPG2/THY INCORP, Metabolic Activation: NONE) “inactive; negative”.
Take `CCc1ccc(NO)cc1`: the mutagenic call (Test System: E. COLI, Strain/Indicator: WP2 UVRA, Metabolic Activation: NONE, Method: FLUCTUATION TEST) is “active; positive”.
As to `c1cc2ccc3cccc4ncc(c1)c2c34`, the mutagenic call was “active; positive” (Test System: AMES SALMONELLA TYPHIMURIUM, Strain/Indicator: TA98, Metabolic Activation: RAT, LIVER, S-9, AROCLOR 1254, Method: STANDARD PLATE) and “active; positive” under setting [3].
`CC(C)(C)c1cc(Cc2cc(C(C)(C)C)c(O)c(C(C)(C)C)c2)cc(C(C)(C)C)c1O`: the mutagenic call was “inactive; negative” (Test System: AMES SALMONELLA TYPHIMURIUM, Strain/Indicator: TA97, Metabolic Activation: NONE, Method: STANDARD PLATE); “inactive; negative” (Test System: AMES SALMONELLA TYPHIMURIUM, Strain/Indicator: TA97, Metabolic Activation: S-9, Method: STANDARD PLATE); “inactive; negative” under setting [1]; “inactive; negative” (Test System: AMES SALMONELLA TYPHIMURIUM, Strain/Indicator: TA98, Metabolic Activation: S-9, Method: STANDARD PLATE); “inactive; negative” under setting [2]; “inactive; negative” (Test System: AMES SALMONELLA TYPHIMURIUM, Strain/Indicator: TA100, Metabolic Activation: S-9, Method: STANDARD PLATE). The mutagenic call was “inactive; negative” (Test System: AMES SALMONELLA TYPHIMURIUM, Strain/Indicator: TA102, Metabolic Activation: NONE, Method: STANDARD PLATE); “inactive; negative” (Test System: AMES SALMONELLA TYPHIMURIUM, Strain/Indicator: TA102, Metabolic Activation: S-9, Method: STANDARD PLATE); “inactive; negative” (Test System: E.COLI, Strain/Indicator: WP2 (PKM101), Metabolic Activation: NONE, Method: STANDARD PLATE); “inactive; negative” (Test System: E.COLI, Strain/Indicator: WP2 (PKM101), Metabolic Activation: S-9, Method: STANDARD PLATE).
